Legend:
[1] = tested on: AMBEL (Ragweed, Common); assay: Postemergence herbicidal evaluation; format: in vivo, Ambrosia artemisifolia; settings: postemergence
How it was run: (§1)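 Herbicidal effect was judged by eye on a 0–9 scale covering stand, vigor, deformity, size and chlorosis, compared with controls, four to five weeks after seedlings about two weeks old were sprayed (40 psi, ~0.0156–0.500 kg/ha).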

[2] = tested on: CASOB (Sicklepod); assay: Postemergence herbicidal evaluation; format: in vivo, Cassia obtusifolia; settings: postemergence
How it was run: as §1

[3] = tested on: CHEAL (Lambsquarters, Common); assay: Postemergence herbicidal evaluation; format: in vivo, Chenopodium album; settings: postemergence
How it was run: as §1

[4] = tested on: IPOHE (Morningglory, Ivyleaf); assay: Postemergence herbicidal evaluation; format: in vivo, Ipomoea hederacea; settings: postemergence
How it was run: as §1

[5] = tested on: ECHCG (Barnyardgrass); assay: Postemergence herbicidal evaluation; format: in vivo, Echinochloa crus-galli; settings: postemergence
How it was run: as §1

[6] = tested on: GLXMAW (Soybean, Williams); assay: Postemergence herbicidal evaluation; format: in vivo, Glycine max, (L.) Merr. cv Williams; settings: postemergence
How it was run: as §1

[7] = tested on: TRZAWR (Wheat, Winter, cv Riband); assay: Postemergence herbicidal evaluation; format: in vivo, Triticum aestivum; settings: postemergence
How it was run: as §1

[8] = tested on: ABUTH (Velvetleaf); assay: Preemergence herbicidal evaluation; format: in vivo, Abutilon theophrasti; settings: preemergence, rated 4-5 weeks after treatment, 0-9 scale
How it was run: (§2)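 Seeds were planted in potting soil in cups, then sprayed preemergence with the test compound in aqueous acetone at about 0.0156 to 0.500 kg per hectare. Cups were kept under greenhouse conditions and visually rated 4–5 weeks after treatment on a 0–9 scale against an untreated control.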

[9] = tested on: AMBEL (Ragweed, Common); assay: Preemergence herbicidal evaluation; format: in vivo, Ambrosia artemisifolia; settings: preemergence, rated 4-5 weeks after treatment, 0-9 scale
How it was run: as §2

[10] = tested on: CASOB (Sicklepod); assay: Preemergence herbicidal evaluation; format: in vivo, Cassia obtusifolia; settings: preemergence, rated 4-5 weeks after treatment, 0-9 scale
How it was run: as §2

[11] = tested on: CHEAL (Lambsquarters, Common); assay: Preemergence herbicidal evaluation; format: in vivo, Chenopodium album; settings: preemergence, rated 4-5 weeks after treatment, 0-9 scale
How it was run: as §2

[12] = tested on: IPOHE (Morningglory, Ivyleaf); assay: Preemergence herbicidal evaluation; format: in vivo, Ipomoea hederacea; settings: preemergence, rated 4-5 weeks after treatment, 0-9 scale
How it was run: as §2

[13] = tested on: GLXMAW (Soybean, Williams); assay: Preemergence herbicidal evaluation; format: in vivo, Glycine max, (L.) Merr. cv Williams; settings: preemergence, rated 4-5 weeks after treatment, 0-9 scale
How it was run: as §2

[14] = tested on: ORYSAT (Rice, Tebonnet); assay: Preemergence herbicidal evaluation; format: in vivo, Oryza sativa, (L.) Tebonnet; settings: preemergence, rated 4-5 weeks after treatment, 0-9 scale
How it was run: as §2

[15] = tested on: MOOVA (Monochoria); assay: Preemergence weed control under flooded paddy conditions; format: in vivo, Monochoria vaginalis; settings: rated 3-4 weeks after treatment
How it was run: (§3)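 Silt loam, seeds in top 0.5 cm; flood held 1.5-3 cm; test cpd as acetone/water 50/50 into flood water, ~0.0313-0.500 kg/ha a.i.; greenhouse 3-4 wk; visual 0-9 score vs control.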

[16] = tested on: SAGPY (Arrowhead (Pygmaea)); assay: as above; format: in vivo, Sagittaria pygmaea; settings: rated 3-4 weeks after treatment
How it was run: as §3

C=CCN1C(=O)C(CC(=O)OCCF)SC1=Nc1cc(-n2c(=O)cc(C(F)(F)F)n(C)c2=O)c(F)cc1Cl (stereo not drawn) [Compound 86, 2-Fluoroethyl 3-allyl-2-{{2-chloro-5-[3,6-dihydro-3-methyl-2,6-dioxo-4-(trifluoromethyl)-1(2H)-pyrimidinyl]-4-fluorophenyl}imino}-4-oxo-5-thiazolidineacetate]
7.0: CASOB herbicidal rating ([2]; rate 0.0625 kg/ha) | TRZAWR herbicidal rating ([7]; rate 0.0313 kg/ha)
3.0: ECHCG herbicidal rating ([5]; rate 0.0156 kg/ha) | CASOB rating ([10]; 0.5000 kg/ha)
1.0: CASOB herbicidal rating ([2]; rate 0.0156 kg/ha)
0.0: AMBEL rating ([9]; 0.0156 kg/ha) | AMBEL rating ([9]; 0.0313 kg/ha) | CASOB rating ([10]; 0.0156 kg/ha) | CASOB rating ([10]; 0.0313 kg/ha) | CASOB rating ([10]; 0.0625 kg/ha) | CASOB rating ([10]; 0.1250 kg/ha) | CASOB rating ([10]; 0.2500 kg/ha) | IPOHE rating ([12]; 0.0156 kg/ha) | IPOHE rating ([12]; 0.0313 kg/ha) | GLXMAW rating ([13]; 0.0156 kg/ha) | GLXMAW rating ([13]; 0.0313 kg/ha) | GLXMAW rating ([13]; 0.0625 kg/ha) | GLXMAW rating ([13]; 0.1250 kg/ha) | ORYSAT rating ([14]; 0.0156 kg/ha) | ORYSAT rating ([14]; 0.0313 kg/ha) | ORYSAT rating ([14]; 0.0625 kg/ha) | ORYSAT rating ([14]; 0.1250 kg/ha)
4.0: CHEAL rating ([11]; 0.0156 kg/ha) | CHEAL rating ([11]; 0.0313 kg/ha) | GLXMAW rating ([13]; 0.2500 kg/ha)
8.5: GLXMAW herbicidal rating ([6]; rate 0.0156 kg/ha) | TRZAWR herbicidal rating ([7]; rate 0.1250 kg/ha)
6.0: TRZAWR herbicidal rating ([7]; rate 0.0156 kg/ha) | AMBEL rating ([9]; 0.0625 kg/ha) | ORYSAT rating ([14]; 0.5000 kg/ha)
9.0: AMBEL herbicidal rating ([1]; rate 0.0156 kg/ha) | AMBEL herbicidal rating ([1]; rate 0.0313 kg/ha) | AMBEL herbicidal rating ([1]; rate 0.0625 kg/ha) | AMBEL herbicidal rating ([1]; rate 0.1250 kg/ha) | CASOB herbicidal rating ([2]; rate 0.1250 kg/ha) | CHEAL herbicidal rating ([3]; rate 0.0156 kg/ha) | CHEAL herbicidal rating ([3]; rate 0.0313 kg/ha) | CHEAL herbicidal rating ([3]; rate 0.0625 kg/ha) | CHEAL herbicidal rating ([3]; rate 0.1250 kg/ha) | IPOHE herbicidal rating ([4]; rate 0.0156 kg/ha) | IPOHE herbicidal rating ([4]; rate 0.0313 kg/ha) | IPOHE herbicidal rating ([4]; rate 0.0625 kg/ha) | IPOHE herbicidal rating ([4]; rate 0.1250 kg/ha) | ECHCG herbicidal rating ([5]; rate 0.0313 kg/ha) | ECHCG herbicidal rating ([5]; rate 0.0625 kg/ha) | ECHCG herbicidal rating ([5]; rate 0.1250 kg/ha) | GLXMAW herbicidal rating ([6]; rate 0.0313 kg/ha) | GLXMAW herbicidal rating ([6]; rate 0.0625 kg/ha) | GLXMAW herbicidal rating ([6]; rate 0.1250 kg/ha) | ABUTH rating ([8]; 0.0156 kg/ha) | ABUTH rating ([8]; 0.0313 kg/ha) | ABUTH rating ([8]; 0.0625 kg/ha) | ABUTH rating ([8]; 0.1250 kg/ha) | ABUTH rating ([8]; 0.2500 kg/ha) | ABUTH rating ([8]; 0.5000 kg/ha) | AMBEL rating ([9]; 0.1250 kg/ha) | AMBEL rating ([9]; 0.2500 kg/ha) | AMBEL rating ([9]; 0.5000 kg/ha) | CHEAL rating ([11]; 0.0625 kg/ha) | CHEAL rating ([11]; 0.1250 kg/ha) | CHEAL rating ([11]; 0.2500 kg/ha) | CHEAL rating ([11]; 0.5000 kg/ha) | IPOHE rating ([12]; 0.1250 kg/ha) | IPOHE rating ([12]; 0.2500 kg/ha) | IPOHE rating ([12]; 0.5000 kg/ha) | MOOVA herbicidal effect rating ([15]; 0.0313 kg/ha) | MOOVA herbicidal effect rating ([15]; 0.0625 kg/ha) | MOOVA herbicidal effect rating ([15]; 0.1250 kg/ha) | MOOVA herbicidal effect rating ([15]; 0.2500 kg/ha) | SAGPY herbicidal effect rating ([16]; 0.0625 kg/ha) | SAGPY herbicidal effect rating ([16]; 0.1250 kg/ha) | SAGPY herbicidal effect rating ([16]; 0.2500 kg/ha)
8.0: IPOHE rating ([12]; 0.0625 kg/ha) | GLXMAW rating ([13]; 0.5000 kg/ha)
7.5: TRZAWR herbicidal rating ([7]; rate 0.0625 kg/ha)
2.0: CASOB herbicidal rating ([2]; rate 0.0313 kg/ha) | ORYSAT rating ([14]; 0.2500 kg/ha)
5.0: SAGPY herbicidal effect rating ([16]; 0.0313 kg/ha)

Source: US20020137929A1, “1 - (3-heterocyclylphenyl) isothiourea, -isourea, -guanidine and -amidine herbicidal agents” (Intellectual Property Department, BASF Aktiengesellschaft, priority 1998, published 2002)
